Where a name gives a salt, the structure may show the parent alone. Read-outs that look alike come from different tables or passages of the source.

Data set [1] relates to metastatic colorectal cancer. The following applies: cited from earlier work.
The test system of data set [2] is liver metastases. The following applies: hepatic arterial infusion; no substantial effect on survival; cited from earlier work.
Data set [3] is described as follows: Phase I dose-finding study of MMDX via the hepatic artery (IHA): toxicity. Type of data set: in vivo, human. The settings on record: for thrombocytopenia (grade): considered tumor related (HCC patient); for anemia (max. grade): one patient. The protocol: (§1) A single arm, multicentre, dose-finding Phase I study of MMDX (PNU 152243) administered as a brief infusion of 30 minutes every 4 weeks via the hepatic artery (IHA) to adult patients either with hepatic metastatic colorectal cancer who have progressed after receiving intravenous chemotherapy or intrahepatic 5-fluoruracil chemotherapy, or with previously untreated primary hepatocellular carcinoma or cholangiocarcinoma involving the liver was carried out. Their disease was confined to the liver, at the time of trial entry.
The primary goal of this study was the determination of Maximal Tolerated Dose (MTD) and Dose-Limiting Toxicities (DLTs)of MMDX when administered via the hepatic artery.
(§2) The starting dose was 100 mcg/m^2,corresponding to one third of the LD10 in rats.
(§3) On a total of 23 registered patients, 18 received intra hepatic artery (IHA) administration of MMDX.
(§4) Doses tested ranged from 100 mcg/m^2 to 800 mcg/m^2.
(§5) Results are available on 13 patients: 3 patients (6 cycles) at 100 mcg/m^2, 3 patients (12 cycles) at 200mcg/m^2, 3 patients (4 cycles) at 400 mcg/m^2, 3 patients (10 cycles) at 600 mcg/m^2 and 1 patient (3 cycles) at 800 mcg/m^2.

Data set [4] relates to HCC. Description: Phase I dose-finding study of MMDX via the hepatic artery (IHA): antitumor activity in liver. Type of data set: in vivo, human. The protocol: as §1
Antitumor activity was documented in this study.
as §3, §4, §5

The test system of data set [5] is liver metastases. In words: Phase I and phase Ib studies by intravenous route: response in liver and toxicity. The format is in vivo, human. The settings on record: i.v. An excerpt:
The expectation that MMDX is effective in liver neoplasms comes from the findings of phase I and phase Ib studies conducted by intravenous route, where, out of 30 patients evaluable for response in liver, 5 experienced regressions of liver metastases. […] Tumor shrinkage occurred at doses of 1250 and 1500 mcg/m^2 i.v..

In data set [6] the test system is liver metastases. Description: Phase II study by i.v. route in breast cancer patients with liver metastases. The settings on record: 1500 mcg/m^2 i.v., six patients treated. The format is in vivo, human.
Data set [7] deals with murine leukemias, solid murine and human tumor models. Description: In vivo antitumor potency, optimal i.v. dose.
Data set [8] is described as follows: Cytotoxic activity in vitro in the presence of liver microsomes. Type of data set: cell-based. The settings on record: mouse, rat and human liver microsomes. An excerpt:
(§6) Strong evidence of antitumor efficacy in liver is also supported by preclinical data. […] This specific effect on liver metastases is probably due to metabolite(s) produced by liver enzymes. This hypothesis is reinforced by several results showing MMDX being activated in vitro by liver microsomes to a highly cytotoxic product. This metabolic conversion is believed to occur also in humans.
On the technique in general: Liver microsomes are vesicles of endoplasmic reticulum, rich in cytochrome P450 enzymes.

The subject of data set [9] is tumor cells resistant to anthracyclines and presenting the mdr phenotype. Description: Activity in vitro and in vivo on resistant tumor cells. An excerpt: MMDX is active in vitro and in vivo on tumor cells resistant to anthracyclines and presenting the mdr phenotype, this last mechanism being recognized to occur also in man.
A well known pathway of the metabolic transformation of the antitumor anthracyclines in mammals is the side-chain carbonyl group reduction, giving the corresponding 13-dihydro derivative.

Data set [10] concerns panel of different tumor types. In words: Oral antitumor efficacy in a panel of tumor types. The format is in vivo. An excerpt: (§7) The high lipophilicity of the molecule, which confers to the compound the ability to reach high intracellular concentrations and is most likely one of the reasons of its efficacy on resistant models, makes it effective also after oral administration. The oral antitumor efficacy of MMDX has been examined in a panel of different tumor types with various schedules of administration. […] In these models, the effective oral doses of MMDX are 1.3-2 fold higher than the effective i.v. doses. […] This might be a reflection of a different behaviour of the drug, due to first pass effect to the liver.

Data set [11] deals with liver metastases from M5076 murine fibrosarcoma. In words: Liver metastases from M5076 murine tumor. Type of data set: in vivo.
Text: as §7, §6

Data set [12] can be described thus: Lethal dose (LD10) in rats. Type of data set: in vivo.
Text: as §2

The nature of data set [13]: Lipophilicity.
Setting [14] is: after failure of 5-FU leucovorin.
Setting [15] is: 400 mcg/m^2 IHA, one patient (1 cycle).
The mark [16] stands for this setting: 600 mcg/m^2 IHA, 1 patient (2 cycles).
[17] abbreviates: 800 mcg/m^2 IHA, 1 patient (1 cycle).
Setting [18] is: systemic, metastatic colorectal cancer.

With `CCc1c2c(nc3ccc(OC(=O)N4CCC(N5CCCCC5)CC4)cc13)-c1cc3c(c(=O)n1C2)COC(=O)[C@]3(O)CC` [Irinotecan hydrochloride trihydrate], in data set [1] (setting [14]), the median survival time entry is given as “approximately 9 months” and the response rate is given as 15%.
As for `O=c1[nH]cc(F)c(=O)[nH]1` [5-FU, 5-fluoruracil], the response rate entry in data set [2] is “up to 50%”.
Consider `COc1cccc2c1C(=O)c1c(O)c3c(c(O)c1C2=O)C[C@@](O)(C(=O)CO)C[C@@H]3O[C@H]1C[C@H](N2CCO[C@H](OC)C2)[C@H](O)[C@H](C)O1` [MMDX, Methoxymorpholino doxorubicin], for which the “leucopenia (grade)” value is recorded as 1 in [3] (100 mcg/m^2 IHA, 1 patient (1 cycle)); 1 in data set [3] (200 mcg/m^2 IHA, 1 patient (1 cycle)); 1 in [3] (400 mcg/m^2 IHA, 1 patient (1 cycle)). Further, the “fatigue (grade)” value in data set [3] (100 mcg/m^2 IHA, 2 patients (3 cycles)) is on record as 1-2; in [3] (200 mcg/m^2 IHA, 1 patient (2 cycles)), 2; in data set [3] (setting [16]), 2; in data set [3] (setting [17]) it was 1. For the same compound, in data set [3] (100 mcg/m^2 IHA, one out of three patients (1 cycle)), the vomiting result is given as “mild”. Further, the “thrombocytopenia (grade)” value in data set [3] (200 mcg/m^2 IHA, 1 patient (3 cycles)) is on record as 1-2; in [3] (600 mcg/m^2 IHA, 1 patient (1 cycle)) it was 1-2. For the same compound, the “increase in transaminases (grade), attributable to the study drug” value in [3] (200 mcg/m^2 IHA, 2/3 patients) is on record as 1-2; in [3] (400 mcg/m^2 IHA, 2/3 patients) it was 1-2; in data set [3] (600 mcg/m^2 IHA, 2 out of 3 patients), 1-2. For the same compound, the “nausea (grade)” value is on record as 2 in data set [3] (200 mcg/m^2 IHA, 2 patients (2 cycles)); 2-3 in [3] (400 mcg/m^2 IHA, 2 patients (2 cycles)); 1-2 in data set [3] (600 mcg/m^2 IHA, 2 patients (2 cycles)); 1 in data set [3] (setting [17]). The “vomiting (grade)” value in [3] (200 mcg/m^2 IHA, 2 patients (3 cycles)) is 1-2; in [3] (setting [15]), 2. Moreover, the “anemia (max. grade)” value in [3] (200 mcg/m^2 IHA), in data set [3] (600 mcg/m^2 IHA) and in data set [3] (800 mcg/m^2 IHA) was no more than 1 in each case. For the same compound, the “hyperglycemia (grade)” value in [3] (200 mcg/m^2 IHA, two patients (one diabetic, persisting from baseline; one post prandial)) is 3. Further, the alopecia result in [3] (setting [15]) and in data set [3] (setting [16]) was “mild” each time. For the same compound, in [3] (setting [15]), the “local pain at porth-a-cath site” value is given as “Mild”. In addition, the “transaminase elevation (grade)” value was 2-3 in [3] (400 mcg/m^2 IHA, third patient, probably due to the IHA technology applied) and 3 in [3] (800 mcg/m^2 IHA, the one patient treated). Further, the “fever (grade)” value in [3] (setting [17]) was found to be 1. In addition, the “mucositis (grade)” value in [3] (setting [17]) worked out at 1. For the same compound, in [3] (IHA), the “time of maximum transaminases elevation” value is given as “during the first week after treatment”. The “most frequently observed adverse events attributable to the study drug” value in data set [3] (IHA, 100-800 mcg/m^2) was “nausea, vomiting and fatigue”. Further, the “other grade 3-4 non-hematological events” value in data set [3] (IHA, 100-800 mcg/m^2) is “No other grade 3-4 events”. Further, in data set [3] (IHA, all doses reported), the AGC result is on record as “always normal”. The “bilirubinemia increases (grade)” value in [3] (IHA, starting from 100 mcg/m^2, not considered due to the study drug) was found to be 2. Further, the “reduction of measurable liver disease (NMR, overall 17.75 cm^2 at entry)” value in data set [4] (200 mcg/m^2 IHA, first HCC patient, after 2 IHA cycles) is listed as “more than 86%”. Besides, the tumor response result is “Partial Response (PR)” in data set [4] (200 mcg/m^2 IHA, first HCC patient, after 2 IHA cycles, confirmed after the fourth); “Complete Response (CR)” in data set [4] (200 mcg/m^2 IHA, first HCC patient, after the sixth IHA cycle); “minor response” in data set [4] (800 mcg/m^2 IHA, third HCC patient, after 3 cycles). In [4] (200 mcg/m^2 IHA, patients with HCC), the “number of objective tumor responses in liver” value is reported as “Two”. Besides, the “decrease of the bigger lesion in diameter (6 cm at baseline, Ctscan)” value in data set [4] (200 mcg/m^2 IHA, second HCC patient, after the third IHA cycle) came to 50%. Moreover, the main toxicities entry in data set [5] (phase I and Ib) is “nausea and vomiting (requiring intravenous antiemetic treatment), myelosuppression and transient elevations in transaminases”. The “liver finding at autopsy” value in [5] (additional patient with colorectal cancer and multiple liver metastases at entry, after the first cycle) is recorded as “no evidence of liver metastases”. Moreover, the “number of patients with regressions of liver metastases” value in data set [5] (out of 30 patients evaluable for response in liver, shrinkage at 1250 and 1500 mcg/m^2) is 5. In addition, the “regression of liver lesions” value in data set [5] (two patients with colorectal cancer, after 3 cycles) was less than 50%. The “regression in liver lesions” value in data set [5] (two patients with renal cancer, after 3 cycles) is given as “greater than 50%”. In data set [6], the “number of complete responses in liver lesions” value is 1. The “number of minor responses in liver lesions” value in data set [6] was found to be 1. Besides, the “number of partial responses in liver lesions” value in data set [6] (one not confirmed four weeks apart) stood at 3. The antitumor activity result in data set [7] (after i.p., i.v. or oral administration, murine leukemias, solid murine and human tumor models) is “good antitumor activity”. The “optimal i.v. dose, fold less than that of doxorubicin” value in [7] (in vivo, i.v.) is given as “at least 80 fold”. The “cytotoxic activity in the presence of liver microsomes” value in data set [8] is on record as “increased”. In addition, the “activity on tumor cells resistant to anthracyclines (mdr phenotype)” value in data set [9] (in vitro and in vivo) is “active”. The cross-resistance entry in data set [9] (tumor cells resistant to L-PAM or cDDP, or to Topoisomerase II inhibitors (at-mdr)) was “No cross-resistance”. Besides, the “oral antitumor activity compared to intravenous (i.v.) administration” value in data set [10] (all animal models examined, various schedules) is “comparable”. In addition, the “effective oral doses, fold higher than the effective i.v. doses” value in data set [10] (animal models) is 1.3-2 fold. Further, the “efficacy on the liver metastases versus the solid primary” value in [11] (administered orally, same M5076 model) is on record as “more effective on the liver metastases than on the solid primary”. In addition, the “efficacy relative to the oral formulation” value in [11] (injectable formulation) is “less effective”. The “survival time (best result)” value in data set [11] (oral formulation, daily for 5 days) is on record as “doubling of survival time”. For the same compound, the “one third of the LD10 in rats” value in [12] turned out to be 100 mcg/m^2. In data set [13], the lipophilicity result is recorded as “high”.
`COc1cccc2c1C(=O)c1c(O)c3c(c(O)c1C2=O)CC(O)(C(O)CO)CC3OC1CC(N2CCOC(OC)C2)C(O)C(C)O1` (stereo not drawn) [reduced derivative of MMDX]: the “active doses, fold higher as compared to the parent drug” value in data set [9] (doxorubicin-resistant models, in vitro and in vivo) stood at 10 fold. In [9] (in vitro and in vivo), the “activity against doxorubicin-resistant models” value is “maintains activity”.
As to 5-fluoruracil (5-FU) plus folinic acid, in data set [1] (setting [18]), the overall survival result is listed as “around 12 months” and the response rate was 20%.
On to `O=c1[nH]c(=O)n([C@H]2C[C@H](O)[C@@H](CO)O2)cc1F` [FUDR, 5-fluorodeoxyuridine], for which the response rate entry in data set [2] is “up to 50%”.

(Values after EP1112066B1, “USE OF METHOXYMORPHOLINO DOXORUBICIN FOR THE TREATMENT OF A LIVER TUMOR” (Pharmacia Italia S.p.A., priority 1998, dated 2000).)
